# Data taken from ChEMBL document CHEMBL1124361, “Tetrapeptide inhibitors of the IgA1 proteinases from type I Neisseria gonorrhoeae” (J Med Chem, 1989).
# Peptide text beside a SMILES is read from it.
# Biological target: IgA-specific serine endopeptidase autotransporter (Neisseria gonorrhoeae, UniProt P09790)
# Assay: Inhibitory concentration against type 1 IgA1 proteinases secreted by Neisseria gonorrhoeae
# IgA-specific serine endopeptidase autotransporter, sequence (P09790 whole entry): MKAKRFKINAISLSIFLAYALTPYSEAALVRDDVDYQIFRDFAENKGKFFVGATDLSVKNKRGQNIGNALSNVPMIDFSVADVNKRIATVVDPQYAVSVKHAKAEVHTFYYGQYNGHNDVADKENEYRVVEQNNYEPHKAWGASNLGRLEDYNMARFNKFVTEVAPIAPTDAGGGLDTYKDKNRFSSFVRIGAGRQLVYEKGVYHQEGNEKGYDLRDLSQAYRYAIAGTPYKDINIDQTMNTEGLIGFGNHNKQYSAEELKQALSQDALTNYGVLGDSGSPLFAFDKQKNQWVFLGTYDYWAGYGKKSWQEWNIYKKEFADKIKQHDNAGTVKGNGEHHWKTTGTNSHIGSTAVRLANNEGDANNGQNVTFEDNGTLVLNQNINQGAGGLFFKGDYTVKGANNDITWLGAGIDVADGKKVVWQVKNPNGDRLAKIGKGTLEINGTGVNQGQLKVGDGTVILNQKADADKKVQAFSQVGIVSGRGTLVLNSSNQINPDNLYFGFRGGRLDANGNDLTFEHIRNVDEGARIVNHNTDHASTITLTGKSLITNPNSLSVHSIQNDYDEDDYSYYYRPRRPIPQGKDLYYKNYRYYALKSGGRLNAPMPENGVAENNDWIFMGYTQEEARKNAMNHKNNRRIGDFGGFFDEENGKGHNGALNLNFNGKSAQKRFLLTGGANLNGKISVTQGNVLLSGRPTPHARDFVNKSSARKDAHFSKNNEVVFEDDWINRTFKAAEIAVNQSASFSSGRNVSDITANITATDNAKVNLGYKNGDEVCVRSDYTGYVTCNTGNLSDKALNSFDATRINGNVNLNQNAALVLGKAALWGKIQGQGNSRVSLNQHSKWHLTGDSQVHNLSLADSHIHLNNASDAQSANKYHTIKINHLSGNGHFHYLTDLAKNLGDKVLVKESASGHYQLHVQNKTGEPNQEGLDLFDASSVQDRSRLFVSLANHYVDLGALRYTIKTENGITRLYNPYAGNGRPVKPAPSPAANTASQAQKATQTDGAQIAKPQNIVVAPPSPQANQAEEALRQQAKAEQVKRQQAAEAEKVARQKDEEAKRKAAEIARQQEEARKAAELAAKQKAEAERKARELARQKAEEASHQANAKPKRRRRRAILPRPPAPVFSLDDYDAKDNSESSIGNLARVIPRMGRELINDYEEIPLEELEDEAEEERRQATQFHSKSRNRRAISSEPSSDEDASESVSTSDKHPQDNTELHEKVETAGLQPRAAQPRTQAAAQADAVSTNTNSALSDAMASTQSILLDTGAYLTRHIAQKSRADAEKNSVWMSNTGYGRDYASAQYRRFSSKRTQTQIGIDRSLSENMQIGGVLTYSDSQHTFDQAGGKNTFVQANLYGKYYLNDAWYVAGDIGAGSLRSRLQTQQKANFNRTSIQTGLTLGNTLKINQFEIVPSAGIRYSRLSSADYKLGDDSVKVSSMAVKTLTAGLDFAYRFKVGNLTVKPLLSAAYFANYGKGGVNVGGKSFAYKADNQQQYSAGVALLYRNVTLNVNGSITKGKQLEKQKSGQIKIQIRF
row,SMILES,IC50
1,CC(=O)N[C@H](C(=O)N1CCC[C@H]1C(=O)N[C@@H](CO)C(=O)N1CCC[C@H]1C(N)=O)[C@@H](C)O [ACETYLTHREONYLPROLYLSERYLPROLINAMIDE(ACTPSPNH2)] (Ac-TPSP-NH2),> 1000 µM
2,CC(=O)N[C@@H](CO)C(=O)N[C@H](C(=O)N1CCC[C@H]1C(=O)N1CCC[C@H]1C(N)=O)[C@@H](C)O (Ac-STPP-NH2),> 1000 µM
3,C[C@@H](O)[C@H](NC(=O)[C@@H]1CCCN1C(=O)[C@@H]1CCCN1)C(=O)N1CCC[C@H]1C(=O)O (H-PPTP-OH),40.5 µM
4,C[C@@H](O)[C@H](NC(=O)[C@@H](N)CO)C(=O)N1CCC[C@H]1C(=O)N1CCC[C@H]1C(N)=O (H-STPP-NH2),> 1000 µM
5,O=C(O)[C@H](CO)NC(=O)[C@@H]1CCCN1C(=O)[C@H](CO)NC(=O)[C@@H]1CCCN1 (H-PSPS-OH),> 1000 µM
6,C[C@@H](O)[C@H](NC(=O)[C@@H](N)CO)C(=O)N1CCC[C@H]1C(=O)N1CCC[C@H]1C(=O)O (H-STPP-OH),73 µM
7,CC(=O)N[C@H](C(=O)N1CCC[C@H]1C(=O)N1CCC[C@H]1C(=O)N[C@H](C(=O)O)[C@@H](C)O)[C@@H](C)O (Ac-TPPT-OH),> 1000 µM
8,C[C@@H](O)[C@H](NC(=O)[C@@H]1CCCN1)C(=O)N1CCC[C@H]1C(=O)N[C@@H](CO)C(N)=O (H-PTPS-NH2),5.3 µM
9,CC(=O)N1CCC[C@H]1C(=O)N1CCC[C@H]1C(=O)N[C@H](C(=O)N1CCC[C@H]1C(=O)O)[C@@H](C)O (Ac-PPTP-OH),> 1000 µM
10,C[C@@H](O)[C@H](N)C(=O)N1CCC[C@H]1C(=O)N1CCC[C@H]1C(=O)N[C@H](C(=O)O)[C@@H](C)O (H-TPPT-OH),> 1000 µM
11,C[C@@H](O)[C@H](N)C(=O)N1CCC[C@H]1C(=O)N1CCC[C@H]1C(=O)N[C@H](C(N)=O)[C@@H](C)O (H-TPPT-NH2),419 µM
12,C[C@@H](O)[C@H](N)C(=O)N1CCC[C@H]1C(=O)N[C@@H](CO)C(=O)N1CCC[C@H]1C(=O)O (H-TPSP-OH),33.1 µM
13,CC(=O)N1CCC[C@H]1C(=O)N1CCC[C@H]1C(=O)N[C@H](C(=O)N1CCC[C@H]1C(N)=O)[C@@H](C)O [ACETYLPROLYLPROLYLTHREONYLPROLINAMIDE(ACPPTPNH2)] (Ac-PPTP-NH2),> 1000 µM
14,CC(=O)N[C@H](C(=O)N1CCC[C@H]1C(=O)N[C@@H](CO)C(=O)N1CCC[C@H]1C(=O)O)[C@@H](C)O (Ac-TPSP-OH),183 µM
15,C[C@@H](O)[C@H](NC(=O)[C@@H]1CCCN1)C(=O)N1CCC[C@H]1C(=O)N[C@@H](CO)C(=O)O (H-PTPS-OH),> 1000 µM
16,C[C@@H](O)[C@H](N)C(=O)N1CCC[C@H]1C(=O)N[C@@H](CO)C(=O)N1CCC[C@H]1C(N)=O [THREONYLPROLYLSERYLPROLINAMIDE(TPSPNH2)] (H-TPSP-NH2),> 1000 µM
17,CC(=O)N1CCC[C@H]1C(=O)N[C@@H](CO)C(=O)N1CCC[C@H]1C(=O)N[C@@H](CO)C(=O)O (Ac-PSPS-OH),675 µM
18,CC(=O)N1CCC[C@H]1C(=O)N[C@H](C(=O)N1CCC[C@H]1C(=O)N[C@@H](CO)C(=O)O)[C@@H](C)O (Ac-PTPS-OH),23.8 µM
19,NC(=O)[C@H](CO)NC(=O)[C@@H]1CCCN1C(=O)[C@H](CO)NC(=O)[C@@H]1CCCN1 (H-PSPS-NH2),> 1000 µM
20,CC(=O)N1CCC[C@H]1C(=O)N[C@@H](CO)C(=O)N1CCC[C@H]1C(=O)N[C@@H](CO)C(N)=O [ACETYLPROLYLSERYLPROLYLSERINAMIDE(ACPSPSNH2)] (Ac-PSPS-NH2),> 1000 µM
21,C[C@@H](O)[C@H](NC(=O)[C@@H]1CCCN1C(=O)[C@@H]1CCCN1)C(=O)N1CCC[C@H]1C(N)=O [PROLYLPROLYLTHREONYLPROLINAMIDE(PPTPNH2)] (H-PPTP-NH2),> 1000 µM
22,CC(=O)N1CCC[C@H]1C(=O)N[C@H](C(=O)N1CCC[C@H]1C(=O)N[C@@H](CO)C(N)=O)[C@@H](C)O [ACETYLPROLYLTHREONYLPROLYLSERINAMIDE(ACPTPSNH2)] (Ac-PTPS-NH2),> 1000 µM
23,CC(=O)N[C@@H](CO)C(=O)N[C@H](C(=O)N1CCC[C@H]1C(=O)N1CCC[C@H]1C(=O)O)[C@@H](C)O (Ac-STPP-OH),9.7 µM
24,CC(=O)N[C@H](C(=O)N1CCC[C@H]1C(=O)N1CCC[C@H]1C(=O)N[C@H](C(N)=O)[C@@H](C)O)[C@@H](C)O (Ac-TPPT-NH2),> 1000 µM
